The values below come from US20060069132A1, “Azolecarboxamide herbicides” (priority 2004, published 2006).

One assay relates to pigweed (AMARE). The experiment in a line: Test J Compounds 2 and 6 alone and in combination with other herbicides, foliage spray. It is filed as in vivo, Amaranthus retroflexus. On the set-up: key to AMARE Obsd.: 0 = no effect, 100 = complete control. The settings on record: for AMARE Obsd.: applied alone. From the text: Colby's Equation was used to calculate the expected additive herbicidal effect of the mixtures of Compound 6 with Harmony® Extra (i.e. a 2:1 mixture by weight of thifensulfuron-methyl and tribenuron-methyl). Colby's Equation (Colby, S. R. “Calculating Synergistic and Antagonistic Responses of Herbicide Combinations,” Weeds, 15(1), pp 20-22 (1967)) calculates the expected additive effect of herbicidal mixtures, and for two active ingredients is of the form: Pa+b=Pa+Pb−(PaPb/100) wherein • Pa+b is the percentage effect of the mixture expected from additive contribution of the individual components, • Pa is the observed percentage effect of the first active ingredient at the same use rate as in the mixture, and • Pb is the observed percentage effect of the second active ingredient at the same use rate as in the mixture.
Seeds of test plants consisting of barnyardgrass (ECHCG; Echinochloa crus-galli (L.) Beauv.), blackgrass (ALOMY; Alopecurus myosuroides Huds.), Surinam grass (BRADC; Urochloa decumbens (Staph) R. D. Webster, previously named Brachiaria decumbens Stapf), cocklebur (XANST, Xanthium strumarium L.), corn (ZEAMD, Zea mays L. cv. ‘Pioneer 33G26’), large crabgrass (DIGSA, Digitaria sanguinalis (L.) Scop.), giant foxtail (SETFA, Setaria faberi Herrm.), lambsquarters (CHEAL, Chenopodium album L.), morningglory (IPOCO, Ipomoea coccinea L.), pigweed (AMARE, Amaranthus retroflexus L.), velvetleaf (ABUTH, Abutilon theophrasti Medik.) wheat (TRZAS, Triticum aestivum L. cv. ‘Recital’) and wild oat (AVEFA, Avena fatua L.) were planted in Redi-Earth® planting medium (Scotts Company, 14111 Scottslawn Road, Marysville, Ohio 43041) comprising spaghnum peat moss and vermiculite. Seeds of small-seeded species were planted about 1 cm deep; larger seeds were planted about 2.5 cm deep. Plants were grown in a greenhouse using supplemental lighting to maintain a photoperiod of about 14 hours; daytime and nighttime temperatures were about 24-30° C. and 22-25° C., respectively. […] Also listed in Table J are the expected effects for the mixtures calculated using Colby's Equation.

The subject of the next assay is wheat cv. Retical. Description: Test H safening on wheat by naphthalic anhydride seed treatment, pre-/postemergence. It is filed as in vivo, Triticum aestivum. More on the design: key to Response of wheat, Without naphthalic anhydride seed treatment: 0 = no effect, 100 = complete plant death, vs untreated control. The procedure: This test evaluated the safening of compounds of the invention on wheat (Triticum aestivumL.) cv. ‘Retical’ by seed treatment with naphthalic anhydride. Some of the wheat seed was treated with napthalic anhydride as a 1% by weight seed dressing. The wheat seed were planted in pots containing pasteurized Sassafras sandy loam soil. For postemergence testing the plants were grown 8 days to the 2-leaf stage at time of treatment. Preemergence treatments were applied the same day that the seeds were planted. Treatments were applied by spraying the test compounds formulated in a non-phytotoxic solvent mixture, using a flat fan nozzle and a spray volume of 280 L/ha. The preemergence treatments were triply replicated and the results subsequently averaged. The pots were placed on a growth chamber bench using a complete randomized block design for the preemergence test except for the first replicate, which was unrandomized. The plants were grown in the growth chamber and watered as needed with a dilute nutrient solution containing 200 ppm of N. Illumination was provided by fluorescent lamps giving 200-300 μE/m^2/S of photosynthetically active radiation over a 14-hour photoperiod. The temperature was maintained at 23±2° C. during the day and 17±2° C. at night. The effects of the treatments were rated 25 days after preemergence treatment and 14 days after postemergence treatment. The plant response was visually rated in comparison to untreated controls using a scale of 0 to 100, with 0 representing no effect and 100 representing complete plant death. The results for the compounds tested preemergence are listed in Table H1, and the results for the compounds tested postemergence are listed in Table H2.

A further assay has as its system winter barley. Description: Test F pre-/postemergence herbicide test. Format: in vivo, Hordeum vulgare. An excerpt:
(§1) Seeds of plant species selected from annual blugrass (Poa annua L.), blackgrass (Alopecurus myosuroides Huds.), catchweed bedstraw (Gallium aparine L.), common chickweed (Stellaria media (L.) Vill./Cyr.), downy bromegrass (Bromus tectorum L.), green foxtail (Setaria viridis (L.) Beauv.), Italian ryegrass (Lolium multiflorum Lam.), kochia (Kochia scoparia (L.). Schrad.), lambsquarters (Chenopodium album L.), littleseed canarygrass (Phalaris minor Retz.), pigweed (Amaranthus retroflexus L.), Russian thistle (Salsola kali L. ssp. Ruthenica (Iljin) Soo), wild buckwheat (Polygonum convolvulus L.), wild mustard (Sinapis arvensis L.), wild oat (Avena fatua L.), windgrass (Apera spica-venti (L.) Beauv.), winter barley (Hordeum vulgare L.), and wheat (Triticum aestivum L.) were planted and treated preemergence with test chemicals formulated in a non-phytotoxic solvent mixture which included a surfactant.
(§2) At the same time, plants selected from these crop and weed species were treated with postemergence applications of some of the test chemicals formulated in the same manner. Plants ranged in height from 2 to 18 cm (1- to 4-leaf stage) for postemergence treatments. Treated plants and controls were maintained in a greenhouse for 12 to 14 days, after which time all species were compared to controls and visually evaluated. Plant response ratings, summarized in Table F, are based on a scale of 0 to 100 where 0 is no effect and 100 is complete control. A dash (-) response means no test result.

In the next assay the test system is catchweed bedstraw. The experiment in a line: Test F pre-/postemergence herbicide test. It is filed as in vivo, Gallium aparine.
From the text: as §1, §2

`CCn1nc(C(C)(C)C)cc1C(=O)Nc1cc(C(=O)N(C)C)ccc1F` [Compound 6, N-[5-[(dimethylamino)carbonyl]-2-fluorophenyl]-3-(1,1-dimethylethyl)-1-ethyl-1H-pyrazole-5-carboxamide]: the “AMARE Obsd.” value with pigweed (AMARE) (62 g a.i./ha) is on record as 28; in the assay with pigweed (AMARE) (125 g a.i./ha) it was 60. Besides, the “observed effect of mixture compared with additive effect expected from Colby's Equation” value in the assay with pigweed (AMARE) (mixture with atrazine, pigweed, foliage spray, 15 days after treatment) is “greater than additive”. The “Response of wheat, With 1% naphthalic anhydride seed treatment” value is given as 65 in the assay with wheat cv. Retical (postemergence, 62 g a.i./ha); 75 in the assay on wheat cv. Retical (postemergence, 125 g a.i./ha); 77 with wheat cv. Retical (preemergence, 62 g a.i./ha); 100 in the assay on wheat cv. Retical (preemergence, 125 g a.i./ha). The “Response of wheat, Without naphthalic anhydride seed treatment” value with wheat cv. Retical (postemergence, 62 g a.i./ha) is recorded as 75; in the assay on wheat cv. Retical (postemergence, 125 g a.i./ha), 75; in the assay on wheat cv. Retical (preemergence, 62 g a.i./ha), 99; in the assay on wheat cv. Retical (preemergence, 125 g a.i./ha), 100.
As for `CCn1nc(C(C)(C)C)cc1C(=O)Nc1cc(C(=O)OC(C)C)c(F)cc1F` [Compound 248], the “Plant response rating (0-100), Barley, Winter” value in the assay on winter barley (Postemergence, 31 g ai/ha) was found to be 25; in the assay with winter barley (Postemergence, 62 g ai/ha) it was 30; with winter barley (Postemergence, 125 g ai/ha) it was 30; with winter barley (Postemergence, 250 g ai/ha), 40; in the assay with winter barley (Preemergence, 31 g ai/ha), 0; in the assay on winter barley (Preemergence, 62 g ai/ha), 0. Also, the “Plant response rating (0-100), Barley, Winter” value in the assay with winter barley (Preemergence, 125 g ai/ha) amounted to 0; with winter barley (Preemergence, 250 g ai/ha) it was 35. For the same molecule, the “Plant response rating (0-100), Galium” value in the assay with catchweed bedstraw (Postemergence, 31 g ai/ha) amounted to 50; in the assay with catchweed bedstraw (Postemergence, 62 g ai/ha), 50; in the assay with catchweed bedstraw (Postemergence, 125 g ai/ha), 60; in the assay with catchweed bedstraw (Postemergence, 250 g ai/ha), 60; with catchweed bedstraw (Preemergence, 31 g ai/ha), 30; in the assay with catchweed bedstraw (Preemergence, 62 g ai/ha), 50. The “Plant response rating (0-100), Galium” value in the assay with catchweed bedstraw (Preemergence, 125 g ai/ha) was found to be 50; in the assay with catchweed bedstraw (Preemergence, 250 g ai/ha) it was 60.
